Values quoted from earlier work, collected in US8614057B2, “Methods for collecting and detecting oligonucleotides” (The Invention Science Fund I, LLC, priority 2008, dated 2013).
Read-outs that look alike come from different tables or passages of the source.

What was measured:
[1] = subcutaneous; 40, 8, and 1.6 μg injections once daily over 35 days
RNAse A [2] = molecular target: T1, RNAse A (Bos taurus, UniProt P61823)
T1 sequence (P61823 27-150): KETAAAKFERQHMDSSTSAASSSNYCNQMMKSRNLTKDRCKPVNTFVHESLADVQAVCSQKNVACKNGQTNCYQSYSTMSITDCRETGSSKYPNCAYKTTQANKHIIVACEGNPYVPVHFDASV

[3] = molecular target: RNase-2 (eosinophil derived neurotoxin) (Homo sapiens, UniProt P10153)
RNase-2 (eosinophil derived neurotoxin), sequence (P10153 28-161): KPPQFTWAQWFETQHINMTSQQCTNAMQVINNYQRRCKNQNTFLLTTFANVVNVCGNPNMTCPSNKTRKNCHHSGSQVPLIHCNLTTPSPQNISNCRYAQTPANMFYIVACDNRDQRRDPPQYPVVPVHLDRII

RNase-4 = molecular target: T2, RNase-4 (Homo sapiens, UniProt P34096)
T2 sequence (P34096 29-147): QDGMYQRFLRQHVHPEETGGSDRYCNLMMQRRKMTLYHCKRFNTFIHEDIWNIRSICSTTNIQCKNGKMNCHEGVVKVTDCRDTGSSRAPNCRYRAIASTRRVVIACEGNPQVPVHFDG

RNAse A [4] = molecular target: T1, RNAse A; conditions: RNAse A catalysis
[5] = in humans

## Nc1ccc(N=Nc2ccc(-c3ccc(O)cc3)cc2)c2ccc(S(=O)(=O)O)cc12 [8-amino-5-(4′-hydroxylbiphenyl-4-ylazo)naphthalene-2-sulfonate]
[1]
  toxicity to the animals: without overt toxicity

## Nc1ncnc2c1ncn2C1OC(COP(=O)(O)OP(=O)(O)OC2CC(n3ccc(=O)[nH]c3=O)OC2COP(=O)(O)O)C(OP(=O)(O)O)C1O (centres unmarked) [pdUppAp, 5′-phosphor-2′-deoxyuridine 3′-pyrophosphate, P′-P5-ester with adenosine 3′-phosphate]
RNAse A [2]; pH 5.9
  Ki: 27 nM
RNAse A [2]; pH 7.0
  Ki: 240 nM
[3]
  inhibition of RNase-2 activity: inhibits the activity
RNase-4
  inhibition of RNase-4 activity: inhibits the activity

## oligo(vinylsulfonic acid)
RNAse A [4]; 0 mM sodium chloride end of the range 0 to 100 mM, read-out: inhibition constant (Ki), lower end of reported range
  Ki: ~0.01 nM
RNAse A [4]; 100 mM sodium chloride end of the range 0 to 100 mM, read-out: inhibition constant (Ki), upper end of reported range
  Ki: ~120 nM

## Etanercept
[5]
  half-life: 70 h
